The values that follow come from patent US10202370B2, “Benzimidazole derivatives as selective proteine kinase inhibitors” (AB SCIENCE, priority 2013, dated 2019).

SMILES strings stand for the structures.

Sequence of c-kit WT (P10721 26-976): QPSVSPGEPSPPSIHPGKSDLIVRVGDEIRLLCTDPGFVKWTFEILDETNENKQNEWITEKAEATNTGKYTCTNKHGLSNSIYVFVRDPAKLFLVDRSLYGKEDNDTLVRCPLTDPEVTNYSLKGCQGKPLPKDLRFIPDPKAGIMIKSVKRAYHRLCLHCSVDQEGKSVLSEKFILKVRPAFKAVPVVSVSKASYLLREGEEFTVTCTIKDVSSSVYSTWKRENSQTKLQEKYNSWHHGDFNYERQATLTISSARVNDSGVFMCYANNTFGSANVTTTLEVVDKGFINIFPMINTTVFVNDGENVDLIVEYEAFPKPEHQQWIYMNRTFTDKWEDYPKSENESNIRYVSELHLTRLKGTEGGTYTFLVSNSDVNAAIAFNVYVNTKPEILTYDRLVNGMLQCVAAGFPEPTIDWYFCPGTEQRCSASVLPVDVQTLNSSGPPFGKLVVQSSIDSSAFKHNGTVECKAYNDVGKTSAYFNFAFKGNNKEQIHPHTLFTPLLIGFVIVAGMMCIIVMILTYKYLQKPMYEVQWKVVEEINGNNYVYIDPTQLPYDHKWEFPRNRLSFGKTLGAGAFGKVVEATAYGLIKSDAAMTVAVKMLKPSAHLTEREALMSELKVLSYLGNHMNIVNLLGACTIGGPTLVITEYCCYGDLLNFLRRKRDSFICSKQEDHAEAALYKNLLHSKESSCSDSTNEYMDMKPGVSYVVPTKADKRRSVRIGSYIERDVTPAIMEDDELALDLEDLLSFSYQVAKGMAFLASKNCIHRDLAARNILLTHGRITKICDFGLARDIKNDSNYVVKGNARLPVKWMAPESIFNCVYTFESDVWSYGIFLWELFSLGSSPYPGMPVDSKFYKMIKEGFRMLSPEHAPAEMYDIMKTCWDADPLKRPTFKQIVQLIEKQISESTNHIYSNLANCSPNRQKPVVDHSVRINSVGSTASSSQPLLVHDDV

This assay concerns the target c-kit WT (Homo sapiens (Human), UniProt P10721). Put plainly: Proliferation assay (CellTiter-Blue) on BaF3 Kit WT cell line. The assay is classed as cell-based. The conditions noted are these: BaF3 Kit WT cell line (murine Ba/F3 expressing Human Kit WT, with murine SCF), 48 hours. A digest of the protocol:
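Ba/F3 cells expressing human Kit WT, maintained in RPMI/10% FCS with 250 ng/ml murine SCF, were seeded at 2.10^4 cells/well and exposed to ½ serial dilutions (0–10 μM) for 48 h at 37° C. Viability was measured by CellTiter-Blue fluorescence (544Ex/590Em, 4 h) in triplicate as % of untreated proliferation.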
For orientation: IC50 means the concentration needed to halve the response being measured. Lower therefore signals inhibition by little substance. Compound `Cc1cc2nc(-c3ccc(C(F)(F)F)cc3)[nH]c2cc1Nc1nc(-c2ccc(C#N)cc2)cs1` [Compound 076, 4-{2-[6-Methyl-2-(4-trifluoromethyl-phenyl)-3H-benzoimidazol-5-ylamino]-thiazol-4-yl}-benzonitrile] came in with an IC50 of 1000 to 10000 nM.

The compound `Cc1cc2nc(-c3cncn3C)[nH]c2cc1Nc1nc(-c2cccnc2)cs1` [Compound 077, [6-Methyl-2-(3-methyl-3H-imidazol-4-yl)-3H-benzoimidazol-5-yl]-(4-pyridin-3-yl-thiazol-2-yl)-amine] had an IC50 of 1000 to 10000 nM.

For the compound `Cc1ccc(-c2nc3cc(C)c(Nc4nc(-c5cccnc5)cs4)cc3[nH]2)s1` [Compound 078, [6-Methyl-2-(5-methyl-thiophen-2-yl)-3H-benzoimidazol-5-yl]-(4-pyridin-3-yl-thiazol-2-yl)-amine], the IC50 was at most 1000 nM.

For `Cc1ccc(-c2nc3cc(Nc4nc(-c5ccncc5)cs4)c(C)cc3[nH]2)s1` [Compound 079, [6-Methyl-2-(5-methyl-thiophen-2-yl)-1H-benzoimidazol-5-yl]-(4-pyridin-4-yl-thiazol-2-yl)-amine], the IC50 is at most 1000 nM.

For the compound `Cc1cc2[nH]c(-c3cncn3C)nc2cc1Nc1nc(-c2ccncc2)cs1` [Compound 080, [6-Methyl-2-(3-methyl-3H-imidazol-4-yl)-1H-benzoimidazol-5-yl]-(4-pyridin-4-yl-thiazol-2-yl)-amine], the IC50 was 1000 to 10000 nM.

The compound `Cc1cc2c(cc1Nc1nc(-c3ccncc3)cs1)nc(-c1cccc(C(F)F)c1)n2C` [Compound 081, [2-(3-Difluoromethyl-phenyl)-1,6-dimethyl-1H-benzoimidazol-5-yl]-(4-pyridin-4-yl-thiazol-2-yl)-amine] showed an IC50 of at most 1000 nM.

On to `Cc1cc2c(cc1Nc1nc(-c3ccncc3)cs1)nc(-c1cccc(C(F)(F)F)c1)n2C` [Compound 082, [1,6-Dimethyl-2-(3-trifluoromethyl-phenyl)-1H-benzoimidazol-5-yl]-(4-pyridin-4-yl-thiazol-2-yl)-amine], for which the IC50 was at most 1000 nM.

As to `Cc1cc2c(cc1Nc1nc(-c3ccncc3)cs1)nc(-c1cccc(OC(F)(F)F)c1)n2C` [Compound 083, [1,6-Dimethyl-2-(3-trifluoromethoxy-phenyl)-1H-benzoimidazol-5-yl]-(4-pyridin-4-yl-thiazol-2-yl)-amine], the IC50 is at most 1000 nM.

Regarding `Cc1cc2c(cc1Nc1nc(-c3cccnc3)cs1)nc(-c1cccc(C(F)F)c1)n2C` [Compound 084, [2-(3-Difluoromethyl-phenyl)-1,6-dimethyl-1H-benzoimidazol-5-yl]-(4-pyridin-3-yl-thiazol-2-yl)-amine], the half-inhibitory concentration (IC50) is at most 1000 nM.

Turning to `Cc1cc2c(cc1Nc1nc(-c3cccnc3)cs1)nc(-c1cccc(C(F)(F)F)c1)n2C` [Compound 085, [1,6-Dimethyl-2-(3-trifluoromethyl-phenyl)-1H-benzoimidazol-5-yl]-(4-pyridin-3-yl-thiazol-2-yl)-amine], the concentration for half-maximal inhibition (IC50) was at most 1000 nM.

In the case of `Cc1cc2c(cc1Nc1nc(-c3cccnc3)cs1)nc(-c1cccc(OC(F)(F)F)c1)n2C` [Compound 086, [1,6-Dimethyl-2-(3-trifluoromethoxy-phenyl)-1H-benzoimidazol-5-yl]-(4-pyridin-3-yl-thiazol-2-yl)-amine], the 50% inhibitory concentration (IC50) was at most 1000 nM.

In turn, `FC(F)c1cccc(-c2nc3cc(Nc4nc(-c5cccnc5)cs4)ccc3[nH]2)c1` [Compound 087, [2-(3-Difluoromethyl-phenyl)-1H-benzoimidazol-5-yl]-(4-pyridin-3-yl-thiazol-2-yl)-amine] returned a 50% inhibitory concentration (IC50) of at most 1000 nM.

`FC(F)(F)c1cccc(-c2nc3cc(Nc4nc(-c5cccnc5)cs4)ccc3[nH]2)c1` [Compound 088, (4-Pyridin-3-yl-thiazol-2-yl)-[2-(3-trifluoromethyl-phenyl)-1H-benzoimidazol-5-yl]-amine] came in with an IC50 of 1000 to 10000 nM.

Compound `FC(F)(F)Oc1cccc(-c2nc3cc(Nc4nc(-c5cccnc5)cs4)ccc3[nH]2)c1` [Compound 089, (4-Pyridin-3-yl-thiazol-2-yl)-[2-(3-trifluoromethoxy-phenyl)-1H-benzoimidazol-5-yl]-amine] yielded an IC50 of at most 1000 nM.

`Cn1c(-c2cccc(C(F)F)c2)nc2cc(Nc3nc(-c4cccnc4)cs3)ccc21` [Compound 090, [2-(3-Difluoromethyl-phenyl)-1-methyl-1H-benzoimidazol-5-yl]-(4-pyridin-3-yl-thiazol-2-yl)-amine]: the half-maximal inhibitory concentration (IC50) lay in the range of 1000 to 10000 nM.

In turn, `Cn1c(-c2cccc(C(F)(F)F)c2)nc2cc(Nc3nc(-c4cccnc4)cs3)ccc21` [Compound 091, [1-Methyl-2-(3-trifluoromethyl-phenyl)-1H-benzoimidazol-5-yl]-(4-pyridin-3-yl-thiazol-2-yl)-amine] showed an IC50 of 1000 to 10000 nM.

With `Cn1c(-c2cccc(OC(F)(F)F)c2)nc2cc(Nc3nc(-c4cccnc4)cs3)ccc21` [Compound 092, [1-Methyl-2-(3-trifluoromethoxy-phenyl)-1H-benzoimidazol-5-yl]-(4-pyridin-3-yl-thiazol-2-yl)-amine], the IC50 was in the range of 1000 to 10000 nM.

`Cc1cc2c(cc1Nc1nc(-c3cccnc3)cs1)nc(-c1ccc(C(F)F)cc1)n2C` [Compound 093, [2-(4-Difluoromethyl-phenyl)-1,6-dimethyl-1H-benzoimidazol-5-yl]-(4-pyridin-3-yl-thiazol-2-yl)-amine] gave an IC50 of at most 1000 nM.

Compound `Cc1cc2c(cc1Nc1nc(-c3ccncc3)cs1)nc(-c1ccc(C(F)F)cc1)n2C` [Compound 094, [2-(4-Difluoromethyl-phenyl)-1,6-dimethyl-1H-benzoimidazol-5-yl]-(4-pyridin-4-yl-thiazol-2-yl)-amine] came in with an IC50 of at most 1000 nM.

In turn, `Cc1cc2c(cc1Nc1nc(-c3cccnc3)cs1)nc(-c1cccc(N3CCN(C)CC3)c1)n2C` [Compound 095, {1,6-Dimethyl-2-[3-(4-methyl-piperazin-1-yl)-phenyl]-1H-benzoimidazol-5-yl}-(4-pyridin-3-yl-thiazol-2-yl)-amine] came in with an IC50 of 1000 to 10000 nM.

Regarding `Cc1cc2c(cc1Nc1nc(-c3ccncc3)cs1)nc(-c1cccc(N3CCN(C)CC3)c1)n2C` [Compound 096, {1,6-Dimethyl-2-[3-(4-methyl-piperazin-1-yl)-phenyl]-1H-benzoimidazol-5-yl}-(4-pyridin-4-yl-thiazol-2-yl)-amine], the concentration for half-maximal inhibition (IC50) fell in the range of 1000 to 10000 nM.

`Cc1cc2[nH]c(-c3ccc(C(F)F)cc3)nc2cc1Nc1nc(-c2cccnc2)cs1` [Compound 097, [2-(4-Difluoromethyl-phenyl)-6-methyl-1H-benzoimidazol-5-yl]-(4-pyridin-3-yl-thiazol-2-yl)-amine] gave a concentration for half-maximal inhibition (IC50) of at most 1000 nM.

`Cc1cc2c(cc1Nc1nc(-c3cccnc3)cs1)nc(-c1ccc(CN3CCN(C)CC3)cc1)n2C` [Compound 098, {1,6-Dimethyl-2-[4-(4-methyl-piperazin-1-ylmethyl)-phenyl]-1H-benzoimidazol-5-yl}-(4-pyridin-3-yl-thiazol-2-yl)-amine] returned a 50% inhibitory concentration (IC50) of 1000 to 10000 nM.

`Cc1cc2c(cc1Nc1nc(-c3ccncc3)cs1)nc(-c1ccc(CN3CCN(C)CC3)cc1)n2C` [Compound 099, {1,6-Dimethyl-2-[4-(4-methyl-piperazin-1-ylmethyl)-phenyl]-1H-benzoimidazol-5-yl}-(4-pyridin-4-yl-thiazol-2-yl)-amine] registered an IC50 of 1000 to 10000 nM.

In turn, `Cc1cc2c(cc1Nc1nc(-c3ccncc3)cs1)nc(-c1cccc(C(F)F)c1)n2C(C)C` [Compound 100, [2-(3-Difluoromethyl-phenyl)-1-isopropyl-6-methyl-1H-benzoimidazol-5-yl]-(4-pyridin-4-yl-thiazol-2-yl)-amine] came in with a concentration for half-maximal inhibition (IC50) of at most 1000 nM.

For the compound `Cc1cc2c(cc1Nc1nc(-c3ccncc3)cs1)nc(-c1cccc(C(F)(F)F)c1)n2C(C)C` [Compound 101, [1-Isopropyl-6-methyl-2-(3-trifluoromethyl-phenyl)-1H-benzoimidazol-5-yl]-(4-pyridin-4-yl-thiazol-2-yl)-amine], the IC50 is at most 1000 nM.

The compound `Cc1cccc(-c2nc3cc(Nc4nc(-c5ccncc5)cs4)c(C)cc3n2C(C)C)c1` [Compound 102, (1-Isopropyl-6-methyl-2-m-tolyl-1H-benzoimidazol-5-yl)-(4-pyridin-4-yl-thiazol-2-yl)-amine] registered a concentration for half-maximal inhibition (IC50) of at most 1000 nM.

Take `CCn1c(-c2cccc(C(F)F)c2)nc2cc(Nc3nc(-c4ccncc4)cs3)c(C)cc21` [Compound 103]: the IC50 is at most 1000 nM.

In turn, `CCn1c(-c2cccc(C)c2)nc2cc(Nc3nc(-c4ccncc4)cs3)c(C)cc21` [Compound 104, (1-Ethyl-6-methyl-2-m-tolyl-1H-benzoimidazol-5-yl)-(4-pyridin-4-yl-thiazol-2-yl)-amine] returned an IC50 of at most 1000 nM.

The compound `CCn1c(-c2cccc(C(F)(F)F)c2)nc2cc(Nc3nc(-c4ccncc4)cs3)c(C)cc21` [Compound 105, [1-Ethyl-6-methyl-2-(3-trifluoromethyl-phenyl)-1H-benzoimidazol-5-yl]-(4-pyridin-4-yl-thiazol-2-yl)-amine] displayed an IC50 of at most 1000 nM.

For the compound `Cc1cc2[nH]c(-c3cccc(C(F)(F)F)c3)nc2cc1Nc1nc(-c2ccnc(Cl)c2)cs1` [Compound 106, [4-(2-Chloro-pyridin-4-yl)-thiazol-2-yl]-[6-methyl-2-(3-trifluoromethyl-phenyl)-1H-benzoimidazol-5-yl]-amine], the concentration for half-maximal inhibition (IC50) was at most 1000 nM.

The compound `Cc1cccc(-c2nc3cc(Nc4nc(-c5ccnc(Cl)c5)cs4)c(C)cc3[nH]2)c1` [Compound 107, [4-(2-Chloro-pyridin-4-yl)-thiazol-2-yl]-(6-methyl-2-m-tolyl-1H-benzoimidazol-5-yl)-amine] registered a half-maximal inhibitory concentration (IC50) of at most 1000 nM.

`Cc1cc2[nH]c(-c3cccc(C(F)F)c3)nc2cc1Nc1nc(-c2ccnc(Cl)c2)cs1` [Compound 108, [4-(2-Chloro-pyridin-4-yl)-thiazol-2-yl]-[2-(3-difluoromethyl-phenyl)-6-methyl-1H-benzoimidazol-5-yl]-amine]: the IC50 is at most 1000 nM.

Consider `CCn1c(-c2cccc(C(F)F)c2)nc2cc(Nc3nc(-c4cccnc4)cs3)c(C)cc21` [Compound 109], for which the IC50 was at most 1000 nM.
